According to US20150265642A1, “NAD BIOSYNTHESIS AND PRECURSORS IN THE PREVENTION AND TREATMENT OF INFLAMMATION” (PRESIDENT AND FELLOWS OF HARVARD COLLEGE, priority 2013, published 2015):
“Also recorded” adds a separate entry of the source.

How the values were obtained:
[1] = tested on: inflammation related markers (TNFa, IL-6, IL-18); assay: qPCR of inflammation related markers in gastrocnemius; type: in vivo, C57BL/6J mice; details: 22-month-old mice, NMN IP 500 mg/kg/day, 7 days, 500 mg/kg/day
Description: C57BL/6J mice of 3, 6, 22, or 24 months of age were obtained from the National Institutes of Aging mouse aging colony. Mice were acclimated for at least one-week prior to sacrifice. 3, 6, 22 and 24-month-old mice were given interperitoneal (IP) injections of 500 mg NMN/kg body weight per day or the equivalent volume of PBS for 7 consecutive days at 5:00 pm and 7:00 am on day 8 and sacrificed 4 hr after last injection. All animal studies followed the guidelines of and were approved by the Harvard Institutional Animal Care and Use Committee
C57BL/6J mice of 6 months of age were given interperitoneal (IP) injections of 300 mg DMOG/kg body weight per day or the equivalent volume of PBS for 5 consecutive days. All animal studies followed the guidelines of and were approved by the Harvard Institutional Animal Care and Use Committee
(§1) RNA from skeletal muscle and aorta were extracted with RNeasy mini kit (Qiagen) according to the instructions and quantified using the NanoDrop 1000 spectrophotometer (Thermo Scientific). cDNA was synthesized with the iSCRIP cDNA synthesis kit (BioRad) using 600 ng of RNA. Quantitative RT-PCR reactions were performed using 1 μM of primers and LightCycler® 480 SYBR Green Master (Roche) on an LightCycler® 480 detection system (Roche). Calculations were performed by a comparative method (2-ΔCT) using 18S as an internal control. […]

[2] = tested on: primary myoblasts; assay: qPCR of mitochondrial-encoded genes in primary myoblasts with NMNAT1 knockdown; type: cell-based, mice; details: knockdown of NMNAT1, NMN
Description: Primary myoblasts cells were isolated from WT, SIRT1 KO (Price et al., 2012) and PGC-1α/β KO (Zechner et al., 2010) mice as previously described (Price et al., 2012). WT and PGC-1α/β KO primary myoblasts were plated and allowed to differentiate into myotubes by replacing the media with low glucose DMEM supplemented with 2% horse serum (Sigma-Aldrich) for 4 days. After the differentiation the cells were infected with empty vector or flag-SIRT1 adenovirus as described before (Gerhart-Hines et al., 2007). Media was replaced with fresh DMEM supplemented with 2% horse serum (Sigma-Aldrich) for an additional 48 hr and, after that the cells were harvested for the different assays as described. […]
as §1, with “muscle tissue” for “muscle”, “C2C12 cells” for “aorta”, “(Roche).” for “(Roche). Calculations were performed by a comparative method (2-ΔCT) using 18S as an internal control.”

[3] = tested on: Atrogin-1 and MuRF1; assay: Immunoblot for muscle wasting markers in gastrocnemius; type: in vivo; details: skeletal muscle of old (22-month-old) mice; NMN
Text: C57BL/6J mice of 6, 22, or 30 months of age were obtained from the National Institutes of Aging mouse aging colony. Additionally 22 months old caloric restricted mice were also obtained from the National Institutes of Aging mouse aging colony. EGLN1 KO, SIRT1 KO and SIRT1 OE mice were generated as previously described (Minamishima et al., 2008; Price et al., 2012). Mice were acclimated for at least one-week prior to sacrifice. 3, 6, 22 and 24-month-old mice were given interperitoneal (IP) injections of 500 mg NMN/kg body weight per day or the equivalent volume of PBS for 7 consecutive days at 5:00 pm and 7:00 am on day 8 and sacrificed 4 hr after last injection.
Protein extracts from tissue or C2C12 cells were obtained by lysis in ice-cold lysis buffer (150 mM NaCl, 10 mM Tris HCl (pH 7.4), 1 mM EDTA, 1 mM EGTA, 1% Triton X-100, 0.5% NP-40) supplemented with a cocktail of protease and phosphatase inhibitors (Roche). Protein content was determined by the Bradford protein assay (Biorad), and 50 μg proteins were run on SDS-PAGE under reducing conditions. The separated proteins were then electrophoretically transferred to a polyvinylidene difluoride membrane (Perkin-Elmer). […] The immunostaining was detected using horseradish peroxidase-conjugated anti-rabbit or anti-mouse immunoglobulin for 1 h at room temperature.

NC(=O)c1ccc[n+]([C@@H]2O[C@H](COP(=O)([O-])O)[C@@H](O)[C@H]2O)c1 [NMN, nicotinamide mononucleotide]
expression of inflammation markers (TNFa, IL-6, IL-18) in the skeletal muscle [1]: completely reversed; also recorded: reverses age-related increase in inflammatory markers in the skeletal muscle | expression of mitochondrial-encoded genes [2]: completely abolishes the ability of NMN to induce the expression of mitochondrial-encoded genes | muscle wasting markers Atrogin-1 and MuRF1 [3]: completely reversed
